# Results from PubChem BioAssay (NCI).
#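 Each compound was tested at five concentrations against cells in 96-well plates for 48 hours. At the GI50, growth is halved. TGI denotes the concentration required for complete inhibition of growth.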
# Experiments:
# Assay in all cases: NCI-60 cell line screen, 48 h
# [1] = tested on: OVCAR-3 ovarian
# [2] = tested on: TK-10 renal
# [3] = tested on: HS 578T breast
# [4] = tested on: UO-31 renal
# [5] = tested on: IGROV1 ovarian
# [6] = tested on: NCI-H522 lung
# [7] = tested on: OVCAR-4 ovarian
# [8] = tested on: U251 CNS
# [9] = tested on: BT-549 breast
# [10] = tested on: HCC-2998 colon
# [11] = tested on: NCI-H23 lung
# [12] = tested on: HL-60(TB) leukemia
# [13] = tested on: CAKI-1 renal
# [14] = tested on: RXF 393 renal
# [15] = tested on: MCF7 breast
# [16] = tested on: SK-OV-3 ovarian
# [17] = tested on: NCI/ADR-RES ovarian
# [18] = tested on: A549 NSCLC
# [19] = tested on: SF-268 CNS
# [20] = tested on: MDA-MB-435
# [21] = tested on: HCT-116 colon
# [22] = tested on: COLO 205 colon
# [23] = tested on: SW-620 colon
# [24] = tested on: HOP-62 NSCLC
# [25] = tested on: HCT-15 colon
# [26] = tested on: HT29 colon
# [27] = tested on: MDA-MB-231 breast
# [28] = tested on: 786-0 renal
# [29] = tested on: NCI-H460 lung
smiles,measurement,setting,value
CN1C(=O)N(C)C2C1NN=c1s/c(=C\c3ccccc3F)c(=O)n12 (stereo unspecified),TGI,[1],0.68 µM
same,GI50,[2],> 20.8 µM
same,TGI,[2],> 100 µM
same,GI50,[3],0.287 µM
same,TGI,[3],> 100 µM
same,GI50,[4],0.657 µM
same,TGI,[4],> 100 µM
same,GI50,[5],0.633 µM
same,TGI,[5],> 100 µM
same,GI50,[6],0.229 µM
same,GI50,[7],1.41 µM
same,TGI,[7],> 100 µM
same,GI50,[8],0.356 µM
same,TGI,[8],> 100 µM
same,GI50,[9],1.39 µM
same,TGI,[9],> 100 µM
same,GI50,[10],0.422 µM
same,TGI,[10],> 100 µM
same,GI50,[11],0.534 µM
same,TGI,[11],> 100 µM
same,GI50,[12],0.224 µM
same,TGI,[12],0.633 µM
same,GI50,[13],0.14 µM
same,TGI,[13],> 100 µM
same,GI50,[14],0.159 µM
same,TGI,[14],0.491 µM
same,GI50,[15],0.069 µM
same,TGI,[15],> 100 µM
same,GI50,[16],0.446 µM
same,TGI,[16],> 100 µM
same,GI50,[17],0.229 µM
same,TGI,[17],> 100 µM
same,GI50,[18],0.439 µM
same,TGI,[18],> 100 µM
same,GI50,[19],1.22 µM
same,TGI,[19],> 100 µM
same,GI50,[20],0.0387 µM
same,TGI,[20],0.184 µM
same,GI50,[21],0.354 µM
same,TGI,[21],> 56.6 µM
same,GI50,[22],0.328 µM
same,TGI,[22],1.43 µM
same,GI50,[23],0.296 µM
same,TGI,[23],> 100 µM
same,GI50,[24],0.48 µM
same,TGI,[24],> 100 µM
same,GI50,[25],0.145 µM
same,TGI,[25],> 100 µM
same,GI50,[26],0.312 µM
same,TGI,[26],> 36.7 µM
same,GI50,[27],0.541 µM
same,TGI,[27],> 41.6 µM
same,GI50,[28],0.741 µM
same,TGI,[28],> 100 µM
same,GI50,[29],0.351 µM
same,TGI,[29],> 100 µM
